Where two headings read alike, the source gives them in different places.
What was measured:
[1] = target: T1, EHMT1 (Homo sapiens, UniProt Q9H9B1); experiment: EHMT1 enzyme assay on peptide substrate (EHMT1 PEP); format: biochemical; conditions: Table II
T1 sequence (Q9H9B1 1-1298): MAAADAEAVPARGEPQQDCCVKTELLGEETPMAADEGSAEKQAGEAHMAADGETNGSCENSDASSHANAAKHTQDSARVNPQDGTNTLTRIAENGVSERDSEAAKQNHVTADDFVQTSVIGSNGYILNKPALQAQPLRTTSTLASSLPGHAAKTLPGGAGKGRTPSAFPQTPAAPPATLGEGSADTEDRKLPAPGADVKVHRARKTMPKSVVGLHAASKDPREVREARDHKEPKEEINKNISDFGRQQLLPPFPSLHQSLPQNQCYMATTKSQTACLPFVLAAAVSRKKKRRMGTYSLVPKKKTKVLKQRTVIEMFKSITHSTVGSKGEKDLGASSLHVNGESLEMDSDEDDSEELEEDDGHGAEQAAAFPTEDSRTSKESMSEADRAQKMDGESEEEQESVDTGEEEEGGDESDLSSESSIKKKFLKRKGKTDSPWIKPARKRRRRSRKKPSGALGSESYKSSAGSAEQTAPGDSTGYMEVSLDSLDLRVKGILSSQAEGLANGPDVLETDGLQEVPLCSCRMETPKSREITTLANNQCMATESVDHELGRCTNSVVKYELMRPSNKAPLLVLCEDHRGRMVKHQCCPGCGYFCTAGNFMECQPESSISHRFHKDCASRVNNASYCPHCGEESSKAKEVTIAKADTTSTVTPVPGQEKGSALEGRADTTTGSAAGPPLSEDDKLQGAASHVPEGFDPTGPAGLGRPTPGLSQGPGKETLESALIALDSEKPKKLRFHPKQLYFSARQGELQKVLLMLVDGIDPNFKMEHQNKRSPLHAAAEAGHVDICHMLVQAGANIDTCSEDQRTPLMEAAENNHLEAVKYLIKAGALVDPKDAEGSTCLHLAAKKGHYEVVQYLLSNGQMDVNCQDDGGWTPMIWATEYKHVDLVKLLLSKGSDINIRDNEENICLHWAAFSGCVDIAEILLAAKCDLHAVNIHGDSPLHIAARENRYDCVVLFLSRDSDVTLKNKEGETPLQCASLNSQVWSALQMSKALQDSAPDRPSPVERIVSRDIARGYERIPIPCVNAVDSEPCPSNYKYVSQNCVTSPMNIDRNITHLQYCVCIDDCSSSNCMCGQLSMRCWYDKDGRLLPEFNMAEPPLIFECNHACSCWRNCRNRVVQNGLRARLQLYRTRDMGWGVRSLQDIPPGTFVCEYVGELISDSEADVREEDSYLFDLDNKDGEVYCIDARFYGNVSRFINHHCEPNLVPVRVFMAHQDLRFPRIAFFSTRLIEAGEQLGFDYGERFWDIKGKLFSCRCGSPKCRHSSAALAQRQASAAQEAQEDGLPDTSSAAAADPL

[2] = target: T2, human EHMT2 913-1193 (Homo sapiens, UniProt Q96KQ7); experiment: EHMT2 enzyme assay on histone peptide substrate (EHMT2 PEP); format: biochemical; conditions: Table II; read-out: EHMT2 PEP (IC50 μM)
T2 construct: recombinant purified human EHMT2 913-1193, Viva; purchased Viva
T2 sequence (Q96KQ7 913-1193): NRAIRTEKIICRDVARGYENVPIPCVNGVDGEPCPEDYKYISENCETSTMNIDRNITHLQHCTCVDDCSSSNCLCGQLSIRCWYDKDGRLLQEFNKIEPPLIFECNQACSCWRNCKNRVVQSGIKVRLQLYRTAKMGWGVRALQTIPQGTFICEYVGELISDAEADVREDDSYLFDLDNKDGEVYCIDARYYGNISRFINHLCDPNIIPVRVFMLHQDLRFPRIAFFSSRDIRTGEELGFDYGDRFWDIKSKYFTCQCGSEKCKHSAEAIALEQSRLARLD
In short: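 Inhibition is measured as reduced tritium incorporation into a biotinylated histone peptide from ^3H-SAM. The enzyme (0.031 nM) sees compound for 30 minutes before a 60-minute room-temperature reaction, which unlabeled SAM quenches prior to streptavidin Flashplate capture.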

SMILES	IC50 ([1]; read-out: EHMT1 PEP (IC50 μM)) [µM]	IC50 [2] [µM]	IC50 ([1]; EHMT1 PEP (IC50 μM)) [µM]
COCCCNc1ccnc(Nc2ccc(OC)c(OCCCN3CCCC3)c2)n1 [Compound 22]	< 0.1	< 0.1	–
COc1ccc(Nc2nccc(NCc3nc4ccccc4[nH]3)n2)cc1OCCCN1CCCC1 [Compound 31]	0.1 to 1	0.1 to 1	–
COc1ccc(Nc2cccc3ncnn23)cc1OCCCN1CCCC1 [Compound 220]	> 10	> 10	–
COc1ccc(Nc2nccc(NCc3cccnc3)n2)cc1OCCCN1CCCC1 [Compound 25]	< 0.1	< 0.1	–
CNc1ccnc(Nc2ccc(OC)c(OCCN3CCOCC3)c2)n1 [Compound 237]	1 to 10	1 to 10	–
COc1ccc(OCCCN2CCCC2)cc1Nc1nccc(NCC2CCOCC2)n1 [Compound 227]	> 10	> 10	–
COc1ccc(Nc2ccc3cnn(C)c3c2)cc1OCCCN1CCCC1 [Compound 217]	> 10	> 10	–
CNc1cc(C)nc(Nc2ccc(F)c(OCCCN3CCCC3)c2)n1 [Compound 232]	> 10	> 10	–
CNc1nc(C)cc(Nc2ccc(OC)c(OCCCN3CCCC3)c2)n1 [Compound 208]	0.1 to 1	0.1 to 1	–
COc1ccc(Nc2nccc(NCC3CCNCC3)n2)cc1OCCCN1CCOCC1 [Compound 16, N^2-(4-methoxy-3-(3-morpholinopropoxy)phenyl)-N^4-(piperidin-4-ylmethyl)pyrimidine-2,4-diamine]	0.1 to 1	0.1 to 1	–
CNC(=O)CNc1ccnc(Nc2ccc(OC)c(OCCCN3CCCC3)c2)n1 [Compound 41]	0.1 to 1	0.1 to 1	–
CNc1nc(Nc2ccc(OC)c(OCCCN3CCCC3)c2)ncc1C(F)(F)F [Compound 234]	> 10	> 10	–
COc1ccc(Nc2nccc(NCCNC(C)=O)n2)cc1OCCCN1CCCC1 [Compound 38]	0.1 to 1	< 0.1	–
COc1ccc(Nc2ccnc(NCC3CCN(C(C)=O)CC3)n2)cc1OCCCN1CCCC1 [Compound 216]	0.1 to 1	0.1 to 1	–
CNc1ccnc(Nc2ccc(OC)c(OCCCN3CCCC3)c2)c1 [Compound 209, N^2-(4-methoxy-3-(3-(pyrrolidin-1-yl)propoxy)phenyl)-N^4-methylpyridine-2,4-diamine]	0.1 to 1	0.1 to 1	–
COc1ccc(Nc2nccc(N)n2)cc1OCCCN1CCCC1 [Compound 245]	0.1 to 1	0.1 to 1	–
COc1ccc(Nc2nccc(NC3CCCCC3)n2)cc1OCCCN1CCCC1 [Compound 50]	0.1 to 1	0.1 to 1	–
CNc1ccnc(Nc2ccc(OC)c(OCCCN3CC[C@@H](F)C3)c2)n1 [Compound 229]	0.1 to 1	0.1 to 1	–
CNc1cc(C)nc(Nc2ccc(OC)c(OCCCN3CCCC3)c2)n1 [Compound 205, N^2-(4-methoxy-3-(3-(pyrrolidin-1-yl)propoxy)phenyl)-N^4,6-dimethylpyrimidine-2,4-diamine]	–	< 0.1	< 0.1

SMILES	IC50 ([1]; read-out: EHMT1 PEP (IC50 μM)) [µM]	IC50 [2] [µM]	IC50 ([1]; EHMT1 PEP (IC50 μM)) [µM]
CNc1ncc(C(F)(F)F)c(Nc2ccc(OC)c(OCCCN3CCCC3)c2)n1 [Compound 235]	> 10	> 10	–
COc1ccc(Nc2nccc(Nc3cccc(F)c3)n2)cc1OCCCN1CCCC1 [Compound 225]	1 to 10	1 to 10	–
COc1ccc(Nc2nccc(NCC3CCN(C(C)=O)CC3)n2)cc1OCC1CCN(C)C1 (stereo not shown) [Compound 18, 1-(4-(((2-((4-methoxy-3-((1-methylpyrrolidin-3-yl)methoxy)phenyl)amino)pyrimidin-4-yl)amino)methyl)piperidin-1-yl)ethan-1-one]	0.1 to 1	0.1 to 1	–
CNc1nc(Nc2ccc(OC)c(OCCCN3CCCC3)c2)nc(C)c1F [Compound 236]	0.1 to 1	0.1 to 1	–
CNc1ccnc(Nc2ccc(OC)c(OCCCN3CC(F)C3)c2)n1 [Compound 230]	1 to 10	1 to 10	–
CNc1cncc(Nc2ccc(OC)c(OCCCN3CCCC3)c2)n1 [Compound 247]	1 to 10	1 to 10	–
COc1ccc(Nc2nc(C)cc(NCC3CCN(C(C)=O)CC3)n2)cc1OCCCN1CCCC1 [Compound 19, 1-(4-(((2-((4-methoxy-3-(3-(pyrrolidin-1-yl)propoxy)phenyl)amino)-6-methylpyrimidin-4-yl)amino)methyl)piperidin-1-yl)ethan-1-one]	< 0.1	< 0.1	–
COc1ccc(Nc2nccc(NCC3(O)CCCCC3)n2)cc1OCCCN1CCCC1 [Compound 45]	0.1 to 1	0.1 to 1	–
COc1ccc(Nc2nccc(NC(C)C)n2)cc1OCCCN1CCCC1 [Compound 20]	0.1 to 1	< 0.1	–
COc1ccc(Nc2nccc(NCC3CCN(C)CC3)n2)cc1OCCCN1CCCC1 [Compound 32]	< 0.1	< 0.1	–
COc1ccc(Nc2nccc(NCCCN(C)C(C)=O)n2)cc1OCCCN1CCCC1 [Compound 44]	0.1 to 1	0.1 to 1	–
COc1ccc(Nc2nccc(-c3cnn(C)c3)n2)cc1OCCCN1CCCC1 [Compound 224]	> 10	> 10	–
CNc1cnnc(Nc2ccc(OC)c(OCCCN3CCCC3)c2)c1 [Compound 246]	0.1 to 1	0.1 to 1	–
COc1ccc(Nc2nccc(NCCS(=O)(=O)N(C)C)n2)cc1OCCCN1CCCC1 [Compound 43]	0.1 to 1	0.1 to 1	–
CNc1cc(Nc2cc(OCCCN3CCCC3)c(OC)cn2)ccn1 [Compound 248]	< 0.1	< 0.1	–
COc1ccc(Nc2nccc(CNC3CCOCC3)n2)cc1OCCCNc1ccccc1 [Compound 241]	> 10	> 10	–
COc1ccc(Nc2nccc(NCCc3ccncc3)n2)cc1OCCCN1CCCC1 [Compound 39]	< 0.1	< 0.1	–
CNc1ccnc(Nc2ccc(F)c(OCCCN3CCCC3)c2)n1 [Compound 244]	> 10	> 10	–
CNc1nc(Nc2ccc(OC)c(OCCCN3CCCC3)c2)ncc1C#N [Compound 233]	> 10	> 10	–

Reference: patent US20210198277A1, “AMINE-SUBSTITUTED ARYL OR HETEROARYL COMPOUNDS” (Epizyme, Inc., priority 2016, published 2021)
